Measured values reported in patent publication US20150105252A1, “SUBSTITUTED PYRAZOLES AS HERBICIDES” (E I DU PONT DE NEMOURS AND COMPANY, priority 2013, published 2015).

What was measured:
ryegrass, Italian = test: Test C preemergence; assay type: in vivo, Lolium multiflorum; conditions: for Plant response rating (scale of 0 to 100), Ryegrass, Italian: Preemergence, 250 g ai/ha; for Ryegrass, Italian plant response rating: preemergence
Method in brief: (§1)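 Herbicidal effect is expressed as percent visual control (0–100) judged against untreated plants 13 to 15 days after treatment in the greenhouse. Preemergence pots contained seeds in a soil–sand blend; postemergence plants, 2–18 cm tall, grew in peat-based planting medium.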

barnyardgrass = test: Test B flood; assay type: in vivo, Echinochloa crus-galli; conditions: 250 g ai/ha, visual rating on 0 to 100 scale (0 no effect, 100 complete control), 13 to 15 days
Method in brief: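 Response scored visually, 0–100 relative to controls, 13–15 days after the compound was applied into paddy water; plants were at the 2-leaf stage in pots kept flooded to 3 cm.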

pigweed [1] = test: Test A postemergence; assay type: in vivo, Amaranthus retroflexus
Method in brief: (§2)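 Visual injury rating, 0–100 (0 no effect, 100 complete control), vs untreated controls ~10 days after treatment in greenhouse. Pre: directed soil spray on seeded loam/sand. Post: 2–10 cm plants, 1–2 leaf stage. Formulation: non-phytotoxic solvent mix + surfactant.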

crabgrass, large = test: Test C preemergence; assay type: in vivo, Digitaria sanguinalis; conditions: for Plant response rating (scale of 0 to 100), Crabgrass, Large: Preemergence, 250 g ai/ha; for Crabgrass, Large plant response rating: preemergence
Method in brief: as §1

foxtail, giant = test: Test C preemergence; assay type: in vivo, Setaria faberii; conditions: for Plant response rating (scale of 0 to 100), Foxtail, Giant: Preemergence, 250 g ai/ha; for Foxtail, Giant plant response rating: preemergence
Method in brief: as §1

corn = test: Test C postemergence; assay type: in vivo, Zea mays; conditions: for Plant response rating (scale of 0 to 100 where 0 is no effect and 100 is complete control), Corn: Postemergence, 31 g ai/ha, visually evaluated after 13 to 15 days; for Corn plant response rating / Plant response rating, Corn: postemergence; for Corn plant response rating: 62 g ai/ha, scale 0 to 100
Method in brief: as §1

oilseed rape = test: Test C preemergence; assay type: in vivo, Brassica napus; conditions: for Plant response rating (scale of 0 to 100), Oilseed Rape: Preemergence, 250 g ai/ha; for Oilseed Rape plant response rating: preemergence
Method in brief: as §1

blackgrass = test: Test C preemergence; assay type: in vivo, Alopecurus myosuroides; conditions: for Plant response rating (scale of 0 to 100), Blackgrass: Preemergence, 250 g ai/ha; for Blackgrass plant response rating: preemergence
Method in brief: as §1

wheat [2] = test: Test C postemergence; assay type: in vivo, Triticum aestivum; conditions: for Plant response rating (scale of 0 to 100 where 0 is no effect and 100 is complete control), Wheat: Postemergence, 31 g ai/ha, visually evaluated after 13 to 15 days; for Wheat plant response rating / Plant response rating, Wheat: postemergence; for Wheat plant response rating: 62 g ai/ha, scale 0 to 100
Method in brief: as §1

pigweed [3] = test: Test A preemergence; assay type: in vivo, Amaranthus retroflexus; conditions: preemergence
Method in brief: as §2

wheat [4] = test: Test A postemergence; assay type: in vivo, Triticum aestivum
Method in brief: as §2

galium = test: Test C postemergence; assay type: in vivo, Galium aparine; conditions: for Plant response rating (scale of 0 to 100 where 0 is no effect and 100 is complete control), Galium: Postemergence, 31 g ai/ha, visually evaluated after 13 to 15 days; for Galium plant response rating / Plant response rating, Galium: postemergence; for Galium plant response rating: 62 g ai/ha, scale 0 to 100
Method in brief: as §1

morningglory = test: Test A postemergence; assay type: in vivo, Ipomoea spp.
Method in brief: as §2

[5] = 31 g ai/ha, visual rating, scale 0 to 100 (0 no effect, 100 complete control), 13 to 15 days
[6] = 62 g ai/ha, scale 0 to 100 (0 no effect, 100 complete control), 13 to 15 days
[7] = 125 g ai/ha, scale 0 to 100, 0 is no effect, 100 is complete control
[8] = Postemergence, 500 g ai/ha, visual rating after approx. 10 days, 0 to 100 scale (0 no effect, 100 complete control)
[9] = postemergence, 125 g ai/ha, about 10 days, visual rating on 0 to 100 scale (0 no effect, 100 complete control)
[10] = 250 g ai/ha, scale 0 to 100 (0 no effect, 100 complete control)
[11] = 125 g ai/ha, scale 0 to 100, 0 no effect, 100 complete control
[12] = 125 g ai/ha, visual injury, 0 to 100 scale, approx. 10 days
[13] = 500 g ai/ha, visual injury after approx. 10 days, 0 to 100 scale (0 no effect, 100 complete control)

CCc1cc(C(=O)NCC(F)(F)F)nn1Cc1nc(C(F)(F)F)nn1C [Compound 107]
Plant response rating (scale of 0 to 100), Ryegrass, Italian (ryegrass, Italian): 100
Ryegrass, Italian plant response rating (ryegrass, Italian; [5]): 10
Ryegrass, Italian plant response rating (ryegrass, Italian; [6]): 60
Ryegrass, Italian plant response rating (ryegrass, Italian; [7]): 60
Plant response rating, Barnyardgrass (barnyardgrass): 40
Pigweed plant response rating (pigweed [1]; [8]): 100
Pigweed plant response rating (pigweed [1]; [9]): 100
Plant response rating (scale of 0 to 100), Crabgrass, Large (crabgrass, large): 98
Crabgrass, Large plant response rating (crabgrass, large; [5]): 98
Crabgrass, Large plant response rating (crabgrass, large; [6]): 98
Crabgrass, Large plant response rating (crabgrass, large; [7]): 98
Plant response rating (scale of 0 to 100), Foxtail, Giant (foxtail, giant): 100
Foxtail, Giant plant response rating (foxtail, giant; [5]): 100
Foxtail, Giant plant response rating (foxtail, giant; [6]): 100
Foxtail, Giant plant response rating (foxtail, giant; [7]): 100
Plant response rating (scale of 0 to 100 where 0 is no effect and 100 is complete control), Corn (corn): 5
Corn plant response rating (corn): 5
Plant response rating, Corn (corn; [10]): 40
Plant response rating, Corn (corn; [11]): 5
Plant response rating (scale of 0 to 100), Oilseed Rape (oilseed rape): 100
Oilseed Rape plant response rating (oilseed rape; [5]): 98
Oilseed Rape plant response rating (oilseed rape; [6]): 100
Oilseed Rape plant response rating (oilseed rape; [7]): 100
Plant response rating (scale of 0 to 100), Blackgrass (blackgrass): 100
Blackgrass plant response rating (blackgrass; [5]): 95
Blackgrass plant response rating (blackgrass; [6]): 100
Blackgrass plant response rating (blackgrass; [7]): 100
Plant response rating (scale of 0 to 100 where 0 is no effect and 100 is complete control), Wheat (wheat [2]): 0
Wheat plant response rating (wheat [2]): 5
Plant response rating, Wheat (wheat [2]; [10]): 30
Plant response rating, Wheat (wheat [2]; [11]): 20
Pigweed plant response rating (pigweed [3]; [12]): 100
Pigweed plant response rating (pigweed [3]; [13]): 100
Wheat plant response rating (wheat [4]; [8]): 80
Wheat plant response rating (wheat [4]; [9]): 30
Plant response rating (scale of 0 to 100 where 0 is no effect and 100 is complete control), Galium (galium): 50
Galium plant response rating (galium): 85
Plant response rating, Galium (galium; [10]): 90
Plant response rating, Galium (galium; [11]): 90
Morningglory plant response rating (morningglory; [8]): 100
Morningglory plant response rating (morningglory; [9]): 90

CCc1cc(C(=O)NCC(F)(F)F)nn1Cc1cc(C(F)(F)F)nn1C [Compound 108, 5-ethyl-1-[[1-methyl-3-(trifluoromethyl)-1H-pyrazole-5-yl]methyl]-N-(2,2,2-trifluoroethyl)-1H-pyrazole-3-carboxamide]
Plant response rating (scale of 0 to 100), Ryegrass, Italian (ryegrass, Italian): 100
Ryegrass, Italian plant response rating (ryegrass, Italian; [5]): 30
Ryegrass, Italian plant response rating (ryegrass, Italian; [6]): 60
Ryegrass, Italian plant response rating (ryegrass, Italian; [7]): 90
Plant response rating, Barnyardgrass (barnyardgrass): 40
Pigweed plant response rating (pigweed [1]; [8]): 100
Pigweed plant response rating (pigweed [1]; [9]): 90
Plant response rating (scale of 0 to 100), Crabgrass, Large (crabgrass, large): 100
Crabgrass, Large plant response rating (crabgrass, large; [5]): 100
Crabgrass, Large plant response rating (crabgrass, large; [6]): 100
Crabgrass, Large plant response rating (crabgrass, large; [7]): 100
Plant response rating (scale of 0 to 100), Foxtail, Giant (foxtail, giant): 100
Foxtail, Giant plant response rating (foxtail, giant; [5]): 100
Foxtail, Giant plant response rating (foxtail, giant; [6]): 100
Foxtail, Giant plant response rating (foxtail, giant; [7]): 100
Plant response rating (scale of 0 to 100 where 0 is no effect and 100 is complete control), Corn (corn): 5
Corn plant response rating (corn): 5
Plant response rating, Corn (corn; [10]): 35
Plant response rating, Corn (corn; [11]): 15
Plant response rating (scale of 0 to 100), Oilseed Rape (oilseed rape): 100
Oilseed Rape plant response rating (oilseed rape; [5]): 90
Oilseed Rape plant response rating (oilseed rape; [6]): 98
Oilseed Rape plant response rating (oilseed rape; [7]): 100
Plant response rating (scale of 0 to 100), Blackgrass (blackgrass): 100
Blackgrass plant response rating (blackgrass; [5]): 100
Blackgrass plant response rating (blackgrass; [6]): 100
Blackgrass plant response rating (blackgrass; [7]): 100
Plant response rating (scale of 0 to 100 where 0 is no effect and 100 is complete control), Wheat (wheat [2]): 0
Wheat plant response rating (wheat [2]): 5
Plant response rating, Wheat (wheat [2]; [10]): 20
Plant response rating, Wheat (wheat [2]; [11]): 10
Pigweed plant response rating (pigweed [3]; [12]): 100
Pigweed plant response rating (pigweed [3]; [13]): 100
Wheat plant response rating (wheat [4]; [8]): 90
Wheat plant response rating (wheat [4]; [9]): 40
Plant response rating (scale of 0 to 100 where 0 is no effect and 100 is complete control), Galium (galium): 60
Galium plant response rating (galium): 60
Plant response rating, Galium (galium; [10]): 90
Plant response rating, Galium (galium; [11]): 80
Morningglory plant response rating (morningglory; [8]): 100
Morningglory plant response rating (morningglory; [9]): 90
